Test results taken from patent US20090275099A1 (priority 2004, published 2009).

Columns and labels:
[1] = biological target: mitochondrial F1F0-ATPase (Bos taurus, UniProt P13621+P32876); assay: biochemical; design: species or system bovine; details: for Ki: synthesis
F1F0-ATPase = F1F0-ATPase (Homo sapiens, UniProt P05496+P48047); assay: inhibition of the F1F0-ATPase (potencies stated in the description); type: biochemical
keratinocytes = assay: intracellular ROS (DCF, flow cytometry); type: cell-based, human
Source text: (§1) Foreskin tissue obtained from neonatal circumcisions was used as a source of epidermal keratinocytes and dermal fibroblasts. The use of foreskin tissue in this project was approved by the University of Michigan Institutional Review Board. Epidermal keratinocytes were isolated from foreskin tissue as described previously (see, e.g., Varani J, et al., (1994) J. Clin. Invest. 94:1747-1753; herein incorporated by reference in its entirety). Primary and early passage cells were maintained in Keratinocyte Growth Medium (KGM) (Cambrex Bioscience.). […]
(§2) 2′,7′-dichlorodihydrofluorescin diacetate (DCFH-DA, Molecular Probes, Eugene, Oreg.) was prepared as a 10 mM stock solution in DMSO prior to each use. […] After the indicated treatments, the fluorescence of the oxidized product 2′,7′-dichlorofluorescin (DCF) was monitored by flow cytometry using a FACSCalibur (BD Bioscience, San Diego, Calif.). For each sample, 10,000 events were recorded and the data analyzed to determine median fluorescence intensity.
(§3) Within 1 hour of treatment, Bz-423 increased ROS production in a dose-dependent manner in lymphoid cells. To determine if the anti-proliferative responses to Bz-423 in keratinocytes and fibroblasts similarly involve ROS generation, intracellular ROS levels in Bz-423 treated cells were measured. […]

fibroblasts = assay: intracellular ROS (DCF, flow cytometry); type: cell-based, human
Source text: as §1, §2, §3

B cells = assay: collapse of ΔΨm detected with DiOC6(3); type: cell-based; details: by 5 hours
Method: To detect O2^−, cells are incubated with DHE (10 μM) for 30 min at 37° C. and are analyzed by flow cytometry to measure ethidium fluorescence. Flow analysis of mitochondrial transmembrane potential (ψm) is conducted by labeling cells with DiOC6(3) (20 nM) for 15 min at 37 degrees C. A positive control for disruption of ψm is established using carbonyl cyanide m-chlorophenylhydrazone (CCCP, 50 μM). Caspase activation assays are performed with FAM-VAD-fluoromethylketone. Processing of the substrate is evaluated by flow cytometry.
To characterize the death mechanism engaged by Bz-423, intracellular ROS, ΔΨm, cytochrome c release, caspase activation, and DNA fragmentation were measured over time (the results presented are for B cells but do characterize the response in many different cell types). The first event detected after exposure to Bz-423 is an increase in the fraction of cells that stain with dihyroethedium (DHE), a redox-sensitive agent that reacts specifically with O2^−.
Collapse of ΔΨm was detected using DiOC6(3), a mitochondria-selective potentiometric probe.

Ramos B cells = assay: cell death of Ramos B cells, propidium iodide exclusion by flow cytometry, 24 h; type: cell-based, human; details: Homo sapiens, Ramos, 24 h; read-out: Cell death EC50 (μM), Ramos cells

CN1C(=O)C(Cc2ccc3ccccc3c2)N=C(c2ccc(O)cc2)c2cc(Cl)ccc21 (stereo not shown) [Bz-423]
EC50 ([1]; ATPase activity EC50 (μM), Synthesis, bovine SMPs): 5.5 µM | Ki ([1]; Ki (E), three-dimensional fit, Bz-423): 6.9 ± 0.3 µM | Ki ([1]; Ki (ES), three-dimensional fit, Bz-423): 10 ± 1 µM | Ki ([1]; competitive inhibition constant (Ki(E)), fit of dependence of Vmax/Km on Bz-423 concentration): 7.2 ± 0.3 µM | Ki ([1]; uncompetitive inhibition constant (Ki(ES)), fit of dependence of Vmax on Bz-423 concentration): 11 ± 2 µM | Ki (F1F0-ATPase): ~9 µM | lowest dose with an ROS response (keratinocytes): 250 nM | lowest dose with an ROS response (fibroblasts): 250 nM | cells with collapse of ΔΨm (B cells): > 90% | EC50 (Ramos B cells): 6.3 µM
